Measured values: PubChem BioAssay AID2060903 (Molecular Pharmacology Branch, DTP, NCI, 2025)
Values joined by “and” are separate entries in the source; they are usually repeats but may differ in a detail not shown here. Equal entries are not always repeated.

Tested on: 377384-186-R-J1-PDC complex spheroid viability
Experiment: Anticancer human tumor 377384-186-R-J1-PDC patient-derived pancreatic carcinoma cell line growth inhibition [RAS]
Conditions: for viability, T/C: stronger effect = lower value
Source text: RAS pathway inhibitors in Combinations in Complex Spheroids
A high-throughput screen of multi-cell type tumor spheroids was designed to identify active combinations of RAS pathway inhibitors and targeted small molecules. Complex spheroids include a stromal component modeled by human endothelial cells (HUVEC) and fibroblasts modeled by human mesenchymal stem cells (MSCs). The concentration ranges selected for each drug and investigational agent were based upon clinically achievable concentrations if the clinical Cmax of the agent was known.
Compounds. The drugs and investigational agents: abemaciclib (NSC768073), cobimetinib (NSC768068), divarasib (GDC6063, NSC841802), docetaxel (NSC628503), GDC-1971 (RLY-1971, NSC841576), gemcitabine (NSC613327), inavolisib (NSC800729), ipatasertib (NSC767898), KB-0742 (NSC834161), MRTX-1133 (NSC836407), osimertinib (NSC779217), RMC-4630 (NSC839698), RMC-6236 (NSC851965), RMC-6291 (NSC852671), Ro-3306 (NSC812927), sapanisertib (NSC764658), SN-38 (NSC673596), staurosporine (NSC755774), SY5609 (NSC837396), and tovorafenib (DAY101, NSC766906), were obtained from the National Cancer Institute (NCI) Developmental Therapeutics Program Chemical Repository. The FDA-approved anticancer drug set is available from the NCI Developmental Therapeutics Program. […] The stock solutions were prepared in dimethyl sulfoxide (DMSO, Sigma-Aldrich, St. Louis, MO, cat. D2650) at 800-fold the tested concentration and stored at -70 degrees C prior to their use. All drugs and investigational agents were tested over a range starting from a high concentration at or near the clinical Cmax and decreasing in half-log increments. If the clinical Cmax for an agent had not been determined, the highest concentration tested was 10 microM.
Cell Culture. All cells were maintained in an incubator at 37 degrees C and 5% CO2 with 95% humidity. The PDC lines were cultured according to standard operating procedures established by the NCI PDMR. All PDCs were thawed and cultured in Matrigel-coated flasks prepared with a working solution of 1X Ham's F-12 nutrient mix, without supplementation (Invitrogen, Waltham, MA, cat. 11765054), 100 U/mL penicillin-streptomycin (Invitrogen, cat. 15140122), and 2.5% Matrigel (Corning Inc., Corning, NY, cat. 354248) for the first three passages. The 362531-283-R-J2-PDC and 782815-120-R-J1-PDC lines were cultured in 6C/Colon 1B media, which includes advanced DMEM/F-12 (Thermo Fisher Scientific, cat. 12634028), 10 mM HEPES (Thermo Fisher Scientific, cat. 15630080), 1X GlutaMAX supplement (Thermo Fisher Scientific, cat. 35050061), 0.1 mg/mL primocin (InvivoGen, San Diego, CA, cat. ant-pm-2), 10% defined fetal bovine serum, heat inactivated (HyClone Laboratories Inc., Logan, UT, cat. SH30070.03HI), 50% L-WRN conditioned media (ATCC, cat. CRL-3276), 1.25 mM N-Acetyl-L-cysteine (Sigma-Aldrich, cat. A9165), 10 mM nicotinamide (Sigma-Aldrich, cat. N0636), 1X B-27 supplement (Thermo Fisher Scientific, cat. 17504044), 1X N-2 supplement (Thermo Fisher Scientific, cat. 17502048), 50 ng/mL human EGF (Thermo Fisher Scientific, cat. PHG0311), and 10 microM Y-27632 dihydrochloride (Tocris Bioscience, cat. 1254). The K12877-001-R-J1-PDC line was cultured in 6I media, which includes all 6C/Colon 1B media plus 10 ng/mL human FGF-10 (PeproTech, cat. 100-26), 1 ng/mL human FGF-2 (PeproTech, cat. 100-18B), 1 µM prostaglandin E2 (Tocris Bioscience, cat. 2296), […] hydrocortisone (Sigma-Aldrich, cat. H4001), and […] bovine insulin (Sigma-Aldrich, cat. I6634). The K86415-001-R-J1-PDC line was cultured in 6D media, which includes all 6C/Colon 1B media components minus the L-WRN conditioned media. The 485176-168-R4-J1-PDC was cultured in PANC media, which includes all 6C/Colon 1B media plus 100 ng/mL human FGF-10 (PeproTech, cat. 100-26), 500 nM SB-431542 (Selleckchem, cat. S1067), and 10 nM gastrin (Tocris Bioscience, cat. 3006). […]
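Note: spheroids exposed to compounds for seven days before readout.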

Row | SMILES | IC50 (curve of compound) | IC50 (compound alone, run of 08/20/2024) | viability, T/C (compound 0.00316 µM) | viability, T/C (compound 0.01 µM) | viability, T/C (compound 0.0316 µM) | viability, T/C (compound 0.1 µM) | viability, T/C (compound 0.316 µM) | viability, T/C (compound 1 µM) | viability, T/C (compound 0.000949 µM) | viability, T/C (compound 0.003 µM) | viability, T/C (compound 0.00949 µM) | viability, T/C (compound 0.03 µM) | viability, T/C (compound 0.0949 µM) | viability, T/C (compound 0.3 µM) | viability, T/C (compound 3.16 µM) | viability, T/C (compound 10 µM)
1 | CCN1CCN(Cc2ccc(Nc3ncc(F)c(-c4cc(F)c5nc(C)n(C(C)C)c5c4)n3)nc2)CC1 | 194 nM [middle of 4 runs] | – | 98.7% [middle of 4 runs] | 79.1% [middle of 4 runs] | 70.3% [middle of 4 runs] | 60% [middle of 4 runs] | 44.2% [middle of 4 runs] | 38% [middle of 4 runs] | – | – | – | – | – | – | – | –
2 | CCn1c(-c2cc(N3CCN(C)CC3)cnc2C(C)OC)c2c3cc(ccc31)-c1csc(n1)CC(NC(=O)C1CC1C)C(=O)N1CCCC(N1)C(=O)OCC(C)(C)C2 (stereo not given) | – | – | – | – | – | – | – | – | 51.8% [middle of 8 runs] | 21.4% [middle of 8 runs] | 5.65% [middle of 8 runs] | 2.68% [middle of 8 runs] | 2.25% [middle of 8 runs] | 1.95% [middle of 7 runs] | – | –
3 | CCn1c(-c2cccnc2C(C)OC)c2c3cc(ccc31)N1CCOC(CC(NC(=O)C(C(C)C)N(C)C(=O)C3(F)CCN(C(=O)C#CC(C)(C)N(C)C)CC3)C(=O)N3CCCC(N3)C(=O)OCC(C)(C)C2)C1 (stereo not given) | – | > 0.3 µM | – | – | – | – | – | – | 105% [middle of 8 runs] | 109% [middle of 8 runs] | – | 99.3% [middle of 8 runs] | 99.5% [middle of 8 runs] | 88% [middle of 8 runs] | – | –

Continued, in another order:

Row | IC50 (curve of compound) | IC50 (compound alone, run of 08/20/2024) | SMILES | viability, T/C (compound 0.00316 µM) | viability, T/C (compound 0.01 µM) | viability, T/C (compound 0.0316 µM) | viability, T/C (compound 0.1 µM) | viability, T/C (compound 0.316 µM) | viability, T/C (compound 1 µM) | viability, T/C (compound 0.000949 µM) | viability, T/C (compound 0.003 µM) | viability, T/C (compound 0.00949 µM) | viability, T/C (compound 0.03 µM) | viability, T/C (compound 0.0949 µM) | viability, T/C (compound 0.3 µM) | viability, T/C (compound 3.16 µM) | viability, T/C (compound 10 µM)
4 | 1.8 nM [middle of 4 runs] | – | CCc1c2c(nc3ccc(O)cc13)-c1cc3c(c(=O)n1C2)COC(=O)[C@]3(O)CC | – | – | – | – | – | – | 69.8% [middle of 4 runs] | 35% [middle of 4 runs] | 16.7% [middle of 4 runs] | 7.4% [middle of 4 runs] | 2.65% [middle of 4 runs] | 2.02% [middle of 4 runs] | – | –
5 | > 10 µM | – | C[C@@H](NC(=O)c1ncnc(N)c1Cl)c1ncc(C(=O)Nc2cc(C(F)(F)F)c(Cl)cn2)s1 | – | – | 95.1% [middle of 4 runs] | 99.2% [middle of 4 runs] | – | 117% (2×) and 109% and 132% | – | – | – | – | – | – | – | –
6 | > 10 µM | – | Cc1nc(N2CCC3(CC2)COC(C)C3N)c(CO)nc1Sc1ccnc(N)c1Cl (stereo not given) | – | – | 92% [middle of 4 runs] | 85.4% [middle of 4 runs] | 83.3% [middle of 4 runs] | 85.2% [middle of 4 runs] | – | – | – | – | – | – | 84.6% [middle of 4 runs] | 79% [middle of 4 runs]
7 | 6.44 nM [middle of 4 runs] | – | Nc1ccn(C2OC(CO)C(O)C2(F)F)c(=O)n1 (stereo not given) | – | 36.6% [middle of 4 runs] | 21.4% and 7.24% and 10.1% (2×) | 5.39% [middle of 4 runs] | 4.06% [middle of 4 runs] | 3.19% [middle of 4 runs] | – | – | – | – | – | – | – | –
8 | 39.2 nM [middle of 4 runs] | – | O=C(c1ccc(F)c(F)c1Nc1ccc(I)cc1F)N1CC(O)([C@@H]2CCCCN2)C1 | 85.8% [middle of 4 runs] | 79.5% [middle of 4 runs] | 56.3% [middle of 4 runs] | 21.3% (2×) and 13.7% and 21.1% | 2.49% [middle of 4 runs] | 0.68% [middle of 4 runs] | – | – | – | – | – | – | – | –
